# Results published in ChEMBL document CHEMBL4610106, “Identification of the Clinical Development Candidate MRTX849, a Covalent KRASG12C Inhibitor for the Treatment of Cancer” (J Med Chem, 2020).
# Assays:
# [1] = Hepatic extraction ratio in human liver microsomes; assay type: ADME, Microsome; settings: read-out: ERH
# GTPase KRas = GTPase KRas (Homo sapiens, UniProt P01116, G12C)
# [2] = Hepatic extraction ratio in human hepatocytes at 10 uM incubated for 2 hrs by LC-MS analysis; assay type: ADME, cell-based, Hepatocyte; settings: read-out: ERH
# [3] = Half life in human whole blood at 5 uM by LC-MS/MS analysis; assay type: ADME, tissue-based
# [4] = Half life in dog whole blood at 5 uM by LC-MS/MS analysis; assay type: ADME, tissue-based, Canis lupus familiaris
# [5] = Half life in mouse whole blood at 5 uM by LC-MS/MS analysis; assay type: ADME, tissue-based
# [6] = Protein binding in human plasma; assay type: ADME, cell-free; settings: read-out: PPB (converted)
# [7] = system: GTPase KRas (Homo sapiens), P01116 [G12C]; assay: Inhibition of KRAS G12C mutant in human NCI-H358 cells assessed as reduction in ERK phosphorylation incubated for 3 hrs by in-cell western method
# [8] = Permeability ratio in pig LLC-PK1 cells; assay type: ADME, cell-based, Sus scrofa
# [9] = Apparent permeability in pig LLC-PK1 cells; assay type: ADME, cell-based, Sus scrofa; settings: read-out: permeability
# [10] = Protein binding in mouse plasma; assay type: ADME, cell-free; settings: read-out: PPB (converted)
# [11] = Half life in presence of GSH in phosphate buffer at 1 uM at 37 degC by LC-MS/M analysis; assay type: physicochemical; settings: phosphate buffer with GSH
# [12] = Solubility in FaSSIF at pH 6.5; assay type: physicochemical
# [13] = Clearance in CD1 mouse at 3 mg/kg, iv; assay type: ADME, organism-based; settings: in vivo
# [14] = Volume of distribution at steady state in CD1 mouse at 3 mg/kg, iv; assay type: ADME, organism-based; settings: in vivo, read-out: Vdss
# [15] = Tmax in beagle dog at 10 mg/kg, po; assay type: ADME, organism-based, Canis lupus familiaris; settings: in vivo
# [16] = system: GTPase KRas (Homo sapiens), P01116 [G12C]; assay: In-vivo target engagement at KRAS G12C mutant in athymic nude-Foxn1nu mouse xenografted with human NCI-H358 cells assessed as KRAS G12C modification level in tumor lysate at 30 mg/kg, po dosed via gavage as single administration measured after 6 hrs by LC-MS analysis relative to control; assay type: functional, organism-based; settings: Neoplasm
# MIA PaCa-2 [17] = assay: Antitumor activity against human MIAPaCa2 cells xenografted in athymic nude-Foxn1nu mouse assessed as induction of tumor regression at 30 mg/kg, po dosed daily via gavage for 16 days; assay type: functional
# [18] = Half life in CD1 mouse at 3 mg/kg, iv; assay type: ADME, organism-based; settings: in vivo
# [19] = Cmax in CD1 mouse at 30 mg/kg, po; assay type: ADME, organism-based; set-up: dose 30 mg/kg, route oral; settings: in vivo
# [20] = Half life in beagle dog at 3 mg/kg, iv; assay type: ADME, organism-based, Canis lupus familiaris; settings: in vivo
# [21] = AUC (infinity) in beagle dog at 10 mg/kg, po; assay type: ADME, organism-based, Canis lupus familiaris; set-up: dose 10 mg/kg, time infinity, route oral; settings: in vivo
# [22] = system: GTPase KRas (Homo sapiens), P01116 [G12C]; assay: In-vivo target engagement at KRAS G12C mutant in athymic nude-Foxn1nu mouse xenografted with human NCI-H358 cells assessed as KRAS G12C modification level in tumor lysate at 100 mg/kg, po dosed via gavage as single administration measured after 6 hrs by LC-MS analysis relative to contro; assay type: functional, organism-based; settings: Neoplasm
# [23] = Volume of distribution at steady state in beagle dog at 3 mg/kg, iv; assay type: ADME, organism-based, Canis lupus familiaris; settings: in vivo, read-out: Vdss
# MIA PaCa-2 [24] = assay: Antitumor activity against human MIAPaCa2 cells xenografted in athymic nude-Foxn1nu mouse assessed as induction of tumor regression at 30 mg/kg, po dosed daily via gavage for 16 days followed by drug cessation and measured up to 40 days; assay type: functional
# [25] = Clearance in beagle dog at 3 mg/kg, iv; assay type: ADME, organism-based, Canis lupus familiaris; settings: in vivo
# [26] = Oral bioavailability in beagle dog at 10 mg/kg; assay type: ADME, organism-based, Canis lupus familiaris; settings: in vivo
# [27] = Cmax in beagle dog at 10 mg/kg, po; assay type: ADME, organism-based, Canis lupus familiaris; set-up: dose 10 mg/kg, route oral; settings: in vivo
# [28] = Oral bioavailability in CD1 mouse at 30 mg/kg; assay type: ADME, organism-based; settings: in vivo
# [29] = Tmax in CD1 mouse at 30 mg/kg, po; assay type: ADME, organism-based; settings: in vivo
# [30] = system: GTPase KRas (Homo sapiens), P01116 [G12C]; assay: In-vivo target engagement at KRAS G12C mutant in athymic nude-Foxn1nu mouse xenografted with human NCI-H358 cells assessed as KRAS G12C modification level in tumor lysate at 10 mg/kg, po dosed via gavage as single administration measured after 6 hrs by LC-MS analysis relative to control; assay type: functional, organism-based; settings: Neoplasm
# [31] = target: Glutathione S-transferase P (Homo sapiens) (UniProt P09211); assay: Drug metabolism in human whole blood assessed as GSTP1-1-mediated GSH conjugation; assay type: tissue-based
# [32] = AUC (infinity) in CD1 mouse at 30 mg/kg, po; assay type: ADME, organism-based; set-up: dose 30 mg/kg, time infinity, route oral; settings: in vivo
# GTPase KRas (Homo sapiens), P01116 [G12C], sequence (P01116 whole entry G12C): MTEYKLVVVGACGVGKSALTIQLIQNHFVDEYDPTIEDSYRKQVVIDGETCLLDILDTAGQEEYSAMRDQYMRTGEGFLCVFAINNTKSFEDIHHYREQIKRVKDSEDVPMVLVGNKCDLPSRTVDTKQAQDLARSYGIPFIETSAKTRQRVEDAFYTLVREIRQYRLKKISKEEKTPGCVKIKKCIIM
# GTPase KRas, sequence (P01116 whole entry G12C): as above
# Glutathione S-transferase P (Homo sapiens), sequence (P09211 2-210 limits assumed): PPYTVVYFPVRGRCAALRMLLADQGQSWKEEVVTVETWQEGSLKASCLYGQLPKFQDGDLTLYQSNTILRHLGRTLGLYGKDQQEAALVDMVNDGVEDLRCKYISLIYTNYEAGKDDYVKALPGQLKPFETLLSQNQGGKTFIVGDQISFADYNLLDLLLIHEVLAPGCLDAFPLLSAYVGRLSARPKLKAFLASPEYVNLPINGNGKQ
compound,measurement,setting,value
C=CC(=O)N1CCN(c2nc(OC[C@@H]3CCCN3C)nc3c2CCN(c2c(C(F)(F)F)ccc4[nH]ncc24)C3)CC1,hepatic extraction ratio,[1],< 0.55
same,IC50,GTPase KRas,351 nM
same,"hepatic extraction ratio at 2 h, 10 µM",[2],< 0.55
C=CC(=O)N1CCN(c2nc(OC[C@@H]3CCCN3C)nc3c2CCN(c2cccc4cccc(C(F)(F)F)c24)C3)C[C@@H]1CC#N,IC50,GTPase KRas,4 nM
COC/C=C/C(=O)N1CCN(c2nc(OC[C@@H]3CCCN3C)nc3c2CCN(c2cccc4cccc(Cl)c24)C3)C[C@@H]1CC#N,half-life at 5 µM,[3],> 50 h
same,IC50,GTPase KRas,9 nM
same,half-life at 5 µM,[4],22 h
same,half-life at 5 µM,[5],11 h
C=CC(=O)N1CCN(c2nc(OC[C@@H]3CCCN3C)nc3c2CCN(c2c(CC)ccc4[nH]ncc24)C3)CC1,IC50,GTPase KRas,1080 nM
C=C(OC)C(=O)N1CCN(c2nc(OC[C@@H]3CCCN3C)nc3c2CCN(c2cccc4cccc(Cl)c24)C3)C[C@@H]1CC#N,half-life at 5 µM,[3],40 h
same,IC50,GTPase KRas,> 5000 nM
same,half-life at 5 µM,[4],> 50 h
same,half-life at 5 µM,[5],> 50 h
C=CC(=O)N1CCN(c2nc(OC[C@@H]3CCCN3C)nc3c2CCN(c2cccc4cccc(C#N)c24)C3)C[C@@H]1CC#N,IC50,GTPase KRas,64 nM
C=CC(=O)N1CCN(c2nc(OC[C@@H]3CCCN3C)nc3c2CCN(c2cccc4ccccc24)C3)C[C@@H]1CC#N,fraction unbound,[6],0.05
same,fIC50,[7],200 nM
same,Ratio,[8],28
same,Papp,[9],2.2 ×10⁻⁶ cm/s
same,hepatic extraction ratio,[1],0.45
same,fraction unbound,[10],0.05
same,IC50,GTPase KRas,10 nM
same,"hepatic extraction ratio at 2 h, 10 µM",[2],0.9
same,half-life at 1 µM,[11],4 h
same,solubility,[12],800 µg/mL
C=CC(=O)N1CCN(c2nc(OC[C@@H]3CCCN3C)nc3c2CCN(c2cccc4ccccc24)C3)C(CO)C1 (some centres undefined),IC50,GTPase KRas,4530 nM
C=CC(=O)N1CCN(c2nc(OC[C@@H]3CCCN3C)nc3c2CCN(c2cccc4ccccc24)C3)C(CC#N)C1 (some centres undefined),IC50,GTPase KRas,3320 nM
C=CC(=O)N1CCN(c2nc(OC[C@@H]3CCCN3C)nc3c2CCN(c2c(C(C)C)ccc4[nH]ncc24)C3)CC1,IC50,GTPase KRas,1180 nM
C=CC(=O)N1CCN(c2nc(OC[C@@H]3CCCN3C)nc3c2CCN(c2cccc4ccccc24)C3)CC1CCO (some centres undefined),IC50,GTPase KRas,> 5000 nM
C=CC(=O)N1CCN(c2nc(OC[C@@H]3CCCN3C)nc3c2CCN(c2cccc4cccc(C)c24)C3)C[C@@H]1CC#N,clearance,[13],31.6 mL/min/kg
same,Vd,[14],1.91 L/kg
same,Tmax,[15],1.17 h
same,Activity,[16],60%
same,Activity,MIA PaCa-2 [17],100%
same,half-life,[18],1.33 h
same,Cmax,[19],1660 ng/mL
same,half-life,[20],0.966 h
same,AUC(0-inf),[21],39.5 ng·h/mL
same,Activity,[22],80%
same,Vd,[23],6.16 L/kg
same,IC50,GTPase KRas,1 nM
same,Activity,MIA PaCa-2 [24],100%
same,clearance,[25],151 mL/min/kg
same,bioavailability,[26],3.67%
same,Cmax,[27],17.8 ng/mL
same,bioavailability,[28],31.1%
same,Tmax,[29],0.5 h
same,Activity,[30],20%
same,Drug metabolism,[31],Metabolite detected
same,AUC(0-inf),[32],4910 ng·h/mL
